# Assay results from US20250099420A1, “SMALL MOLECULE MODULATORS OF GPR139 COMPLEX” (University of Florida Research Foundation, Incorporated, priority 2022, published 2025).
# Where two headings read alike, the source gives them in different places.
# Assays:
# GPR139 = molecular target: T1, GPR139 (Homo sapiens, UniProt Q6DWJ6); assay: GPR139 Agonist titration / agonist counterscreen assay (calcium detection, HEK-GPR139 cells); type: cell-based; set-up: expressed in transfected cells; host or cells: HEK Aequorin cells, Maxcyte transient transfection; details: GPR139 Agonist Activity; for Averaged Max % Response (±St. Dev.): activity relative to known control; for EC50: read-out: EC50
# T1 sequence (Q6DWJ6 1-353): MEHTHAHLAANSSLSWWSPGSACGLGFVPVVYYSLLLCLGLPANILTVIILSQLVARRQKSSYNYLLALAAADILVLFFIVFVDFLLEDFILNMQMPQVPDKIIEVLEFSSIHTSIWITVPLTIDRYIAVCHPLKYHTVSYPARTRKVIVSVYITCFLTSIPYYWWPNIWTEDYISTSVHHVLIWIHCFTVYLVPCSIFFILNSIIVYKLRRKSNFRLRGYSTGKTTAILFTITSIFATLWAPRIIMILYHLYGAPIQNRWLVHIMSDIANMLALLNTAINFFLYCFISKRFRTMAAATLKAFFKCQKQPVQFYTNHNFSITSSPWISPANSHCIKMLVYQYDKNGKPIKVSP
# Protocol: GPR activity was assessed using a calcium detection assay. […] Negative control samples were treated with DMSO. […] Intracellular calcium was measured using Calcium 5.
# parental HEK cells = assay: HEK parental Agonist Counterscreen Assay (non-transfected cells); type: cell-based; details: for Averaged Max % Response (±St. Dev.): activity relative to known control
# Description: The high control for the agonist counterscreen was Forskolin not acetylcholine.
# [1] = Homo sapiens, HEK293, HEK Agonist Activity section of Table 4 (parental HEK counterscreen)
# [2] = values printed in E-notation without unit
# [3] = HEK Agonist Activity section of Table 4 (parental HEK counterscreen)
# [4] = Homo sapiens, HEK293, HEK Agonist Activity, parental non-transfected HEK cells
Compound,Averaged Max % Response (±St. Dev.) (GPR139) [%],Lipophilic Efficiency (logD) (GPR139; based on logD),Lipophilic Efficiency (logP) (GPR139; based on logP),Hill Slope (GPR139; fitted dose-response curve),Efficiency Ligand (GPR139; ligand efficiency),Lipophilic Efficiency (logD) (parental HEK cells; HEK Agonist Activity section),Lipophilic Efficiency (logP) (parental HEK cells; HEK Agonist Activity section),EC50 (GPR139; [2]) [µM],Averaged Max % Response (±St. Dev.) (parental HEK cells; HEK Agonist Activity section) [%],EC50 (parental HEK cells; [1]) [µM],further results
COCC(=O)Oc1c(Sc2c(F)c(F)c(F)c(F)c2F)c(C)nn1C(C)(C)C [SR-01000906953],95.58 ± 3.98,3.16,3.16,1.02,0.36,1.23,1.23,0.0681,192.43 ± 25.16,–,Hill Slope (parental HEK cells; HEK Agonist Activity section): 9.35; EC50 (parental HEK cells; [3]): 5.7 µM
CCOc1ccc(C(=O)NCCn2ccc3ccccc32)cc1OCC [SR-01000907288],110.51 ± 12.41,5.58,5.58,–,0.49,–,–,–,–,–,Lipophilic Efficiency (logD) (parental HEK cells; HEK Agonist Activity): 1.28; Lipophilic Efficiency (logP) (parental HEK cells; HEK Agonist Activity): 1.28; Averaged Max % Response (±St. Dev.) (parental HEK cells; HEK Agonist Activity): 14.88 ± 7.51%; EC50 (parental HEK cells; [4]): > 14.1 µM
O=C(NCCS(=O)(=O)N1CCc2ccccc2C1)C(c1ccccc1)c1ccccc1 [SR-01000911742],93.88 ± 11.00,–,–,–,–,1.49,1.49,–,−12.80 ± 5.17,> 14.1,Efficiency Ligand (GPR139): 0.25; Hill Slope (GPR139): 0.32; Lipophilic Efficiency (logD) (GPR139): 2.28; Lipophilic Efficiency (logP) (GPR139): 2.28; EC50 (GPR139; HEK-GPR139 cells): 2.3 µM
Cc1ccc(SCC(=O)Nc2nnc(-c3ccc(Cl)cc3)o2)cc1 [SR-01000913573],186.79 ± 37.86,2.75,2.75,–,0.39,0.84,0.84,> 0.174,8.58 ± 4.44,–,EC50 (parental HEK cells; [3]): > 14.1 µM
O=c1nc(SCc2ccccc2F)c2c([nH]1)CCC2 [SR-01000914970],101.00 ± 9.27,3.98,3.97,0.53,0.50,2.03,2.02,0.158,−5.66 ± 4.95,–,EC50 (parental HEK cells; [3]): > 14.1 µM
COc1ccccc1-c1nnc(NC(=O)Cc2ccc(C)cc2C)o1 [SR-01000915644],98.09 ± 3.30,3.69,3.69,0.31,0.41,1.25,1.25,0.051,−2.94 ± 0.56,> 14.1,–
Cc1cccc(COc2coc(COc3nccn3C)cc2=O)c1 [SR-01000916033],104.22 ± 8.56,5.04,5.04,0.34,0.42,2.68,2.68,0.0619,25.93 ± 6.51,> 14.1,–
O=C1CCCCN1c1cccc(NS(=O)(=O)c2cc(Cl)ccc2Cl)c1 [SR-01000916375],91.29 ± 4.98,–,–,–,–,1.86,1.41,–,−1.52 ± 2.20,> 14.1,Efficiency Ligand (GPR139): 0.36; Hill Slope (GPR139): 0.68; Lipophilic Efficiency (logD) (GPR139): 3.43; Lipophilic Efficiency (logP) (GPR139): 2.99; EC50 (GPR139; HEK-GPR139 cells): 0.373 µM
COCCn1c(C)c(C(=O)NC(C)CCc2ccccc2)c2nc3ccccc3nc21 (stereo not drawn) [SR-01000918134],116.95 ± 4.02,3.05,3.05,–,0.33,0.66,0.66,–,−11.92 ± 3.45,> 14.1,–

# Now from value to molecule, other results behind:
Averaged Max % Response (±St. Dev.) (GPR139) [%],Lipophilic Efficiency (logD) (GPR139; based on logD),Lipophilic Efficiency (logP) (GPR139; based on logP),Hill Slope (GPR139; fitted dose-response curve),Efficiency Ligand (GPR139; ligand efficiency),Lipophilic Efficiency (logD) (parental HEK cells; HEK Agonist Activity section),Lipophilic Efficiency (logP) (parental HEK cells; HEK Agonist Activity section),EC50 (GPR139; [2]) [µM],Compound,Averaged Max % Response (±St. Dev.) (parental HEK cells; HEK Agonist Activity section) [%],EC50 (parental HEK cells; [1]) [µM],further results
106.36 ± 3.74,3.70,3.70,0.50,0.36,1.68,1.68,–,COc1ccc(CCCC(=O)c2cccc(-c3ccc(OC)cc3)c2)cc1 [SR-01000655128],0.74 ± 3.27,> 14.1,–
102.69 ± 7.41,4.95,4.94,0.31,0.44,–,–,0.0079,COc1ccccc1OCC(=O)NCCc1ccc2c(c1)CCCN2C [SR-01000911654],–,–,Lipophilic Efficiency (logD) (parental HEK cells; HEK Agonist Activity): 1.69; Lipophilic Efficiency (logP) (parental HEK cells; HEK Agonist Activity): 1.69; Averaged Max % Response (±St. Dev.) (parental HEK cells; HEK Agonist Activity): −5.46 ± 4.05%; EC50 (parental HEK cells; [4]): > 14.1 µM
103.55 ± 8.13,6.11,6.11,1.13,0.44,–,–,0.0143,COc1ccc(NC(=O)NCC2CC(=O)N(c3ccccc3)C2)cc1 (stereo not drawn) [SR-01000912290],–,–,Lipophilic Efficiency (logD) (parental HEK cells; HEK Agonist Activity): 3.12; Lipophilic Efficiency (logP) (parental HEK cells; HEK Agonist Activity): 3.12; Averaged Max % Response (±St. Dev.) (parental HEK cells; HEK Agonist Activity): 20.29 ± 5.75%; EC50 (parental HEK cells; [4]): > 14.1 µM
111.55 ± 2.57,4.82,4.82,0.34,0.38,2.35,2.35,0.0479,COc1ccc(CCC(=O)Nc2ccc(OC)c(N3CCCC3=O)c2)cc1 [SR-01000916271],29.38 ± 9.84,> 14.1,–
84.68 ± 8.82,4.29,4.29,0.73,0.35,2.37,2.37,0.166,CCn1c(=O)c([N+](=O)[O-])c(NCCc2ccc(OC)cc2)c2ccccc21 [SR-01000918303],−6.52 ± 9.86,–,EC50 (parental HEK cells; [3]): > 14.1 µM
111.04 ± 7.77,5.74,5.74,–,0.43,–,–,–,COc1ccc(C2(C)NC(=O)N(CC(=O)Nc3cc(C)ccc3C)C2=O)cc1 (stereo not drawn) [SR-01000918716],–,–,"Hill Slope (parental HEK cells; HEK Agonist Activity): 0.85; Lipophilic Efficiency (logD) (parental HEK cells; HEK Agonist Activity): 2.34; Lipophilic Efficiency (logP) (parental HEK cells; HEK Agonist Activity): 2.34; Averaged Max % Response (±St. Dev.) (parental HEK cells; HEK Agonist Activity): 92.04 ± 16.23%; EC50 (parental HEK cells; HEK Agonist Activity, parental non-transfected HEK cells): 5.5 µM"
